# Target: T1, HSP27 (heat shock protein 27, HSPβ1; 6×His-HSP27) (Homo sapiens, UniProt P04792)
# T1 construct: gene HSPB1; full length (205 aa), N-terminal 6×His tag (pET-28a), E. coli Rosetta 2 (DE3), Ni-NTA, ~30 kDa band; large oligomer (more than octamer)
# Assay: liposome co-sedimentation (ultracentrifugation), Western blot densitometry
# Format: binding
# Details: unreliable; extrapolated beyond the 0-25 μM range; PS in liposomes (PS/egg PC/cholesterol 20/50/30 mol%), 0.1 μM protein, pH 7.4, 4 °C
# T1 sequence (P04792 whole entry): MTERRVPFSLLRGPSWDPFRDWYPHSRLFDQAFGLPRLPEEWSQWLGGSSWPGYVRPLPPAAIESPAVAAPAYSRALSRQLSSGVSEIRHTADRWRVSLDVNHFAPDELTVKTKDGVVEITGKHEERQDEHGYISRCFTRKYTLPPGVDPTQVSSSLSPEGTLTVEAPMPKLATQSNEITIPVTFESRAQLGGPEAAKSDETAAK
smiles,measurement,value
"CCCCCCCCCCCCCCCC(=O)OC[C@H](COP(=O)(O)OC[C@H](N)C(=O)O)OC(=O)CCCCCCCCCCCCCCC [16:0/16:0-PS, 1,2-dipalmitoyl-sn-glycero-3-phosphoserine]",extrapolated Kd,~ 100 μM

# From publication PMC10023972, “Saturated fatty acid– and/or monounsaturated fatty acid–containing phosphatidic acids selectively interact with heat shock protein 27” (The Journal of Biological Chemistry, 2023)
